Measured values reported in patent US20250000783A1, “METHOD FOR HAIR CARE BY USING CASHEW TESTA EXTRACT” (TCI CO., LTD., priority 2023, published 2025).

Tests used:
[1] = system: human hair follicle dermal papilla cells (HFDPC); assay: Antioxidant test for hair follicle cells (ROS, DCFH-DA, flow cytometry, H2O2 stimulation); format: cell-based; settings: 0.1 mM compound + 0.5 mM H2O2, read-out: ROS inhibition rate relative to control group G02
Method: 1. Cell strains: human hair follicle dermal papilla cells (HFDPC), which are purchased from PromoCell, with a cell number C-12071, and hereinafter referred to as HFDPC cells.
1. HFDPC cells were inoculated into a 6-well culture medium with 2 ml of cell culture medium in each well at the density of 1×10^5 cells, and cultured at 37° C. for 24 h. Therefore, the HFDPC cells were divided into three test groups which were blank group G01, control group G02 and experimental group, respectively.
2. After culture for 24 h, each group was changed as an experimental culture medium. Where, the experimental culture media in blank G01 and control group G02 were cell culture mediums without cashew testa extracts or compounds thereof. Subsequently, each group was treated at 34° C. for 1 h.
3. After treatment for 1 h, a DCFH-DA treatment reagent was added in each group so that the final concentration of each group was 5 μg/mL, and each group was treated at 37° C. for 15 min.
4. After treatment for 15 min, 100 mM of 5 μl/well H2O2 aqueous solution was added, and each group was treated at 34° C. for 0.5 h.
5. The treated experimental culture medium in each group was removed, and washed 2 times with 1× DPBS.
6. After washing, 500 μl of trypsin was added into each well for 5 min of photophobic reaction. After the reaction, the cell culture medium was added to terminate the reaction. After that, suspended cells and cell culture media in each well were collected into corresponding 1.5 ml micro-centrifuge tubes, and centrifuged for 5 min at 400×g to make cells in each centrifuge tube participated.
7. Supernatant in a centrifuge test tube for each group was removed, and the precipitate cells were washed with 1× DPBS once, and then centrifuged for 5 min at 400×g.
The supernatant in a centrifuge test tube for each group was removed again, and 200 μl of 1× DPBS was added into the centrifuge test tube for each group to resuspend the cells so as to form a cell suspension.
8. The excitation light parameter of flow cytometry was set as 450-490 nm, the scattered light parameter of flow cytometry was set as 510-550, and then the fluorescence signal of DCFH-DA in each group was detected by flow cytometry. After entering the HFDPC cells, DCFH-DA was […] into DCFH (dichlorodihydrofluorescein) and then oxidized into DCF (dichlorofluorescein) capable of emitting green fluorescence by reactive oxygen species (ROS), the fluorescence intensity of the HFDPC cells treated by DCFH-DA can reflect the content of ROS in […], so as to obtain the proportion of highly expressed ROS cells in FDPC cells accounting for the number of original cells.
The relative ROS generation amounts of all groups are calculated according to the following formula: ROS relative generation amount (%)=(green fluorescence signal in each group/green fluorescence signal in blank group G01)×100%.
Since the experiment was repeated for three times, the measurement results of experiment that was repeated for three times were averaged as an average value, and then statistically significant differences between rest results of control group G02 and other groups were obtained by student's t-test statistical analysis. In the figures, “*” represents that compared with control group G02, p is less than 0.05, “**” represents that compared with control group G02, p is less than 0.01, and “***” represents that compared with control group G02, p is less than 0.001.
Refer to FIG. 10. The cells in blank group G01 were neither treated with the cashew testa extract, nor stimulated by adding H2O2, and therefore the test results in blank group G01 represent the expression of cells under the condition of normal physiological metabolism, and the relative ROS generation amount of each group is as shown in FIG. 10. […]

[2] = system: HFDPC cells; assay: Test for promoting hair follicle cell proliferation (EdU, flow cytometry); format: cell-based, human; settings: 0.1 mM compound, 24 h; for relative hair follicle cell proliferation rate: blank group G01 = 100%
Method: 1. Assay kit: cell proliferation assay kit (Click-iT™ Plus EdU Flow Cytometry Assay Kits-Alexa Fluor™ 488 picolyl azide, 50 tests), which is purchased from Invitrogen, with a product number C10632.
1. HFDPC cells were inoculated into a 6-well culture medium at the density of 1×10^5 cells/well, and cultured under the conditions of 5% CO2 and 37° C. until 80%-90% of cell fullness were achieved.
2. After culture for 24 h, the content of DNA in each group was measured by using cell proliferation assay kit. Therefore, cells in each group were treated according to test procedures provided by the cell proliferation assay kit, then the excitation light parameter of flow cytometer was set as 450-490 nm, and the scattered light parameter of flow cytometer was set as 510-550 nm, and then EdU (5-ethynyl-2′-deoxyuridine) fluorescent signal of each group was detected by flow cytometer.
The proliferation rate of hair follicle cells in each group was based on the content of DNA in each group. The relative hair follicle cell proliferation rates of all groups are calculated according to the following formula: relative hair follicle cell proliferation rate (%)-(fluorescent signal of each group/fluorescent signal of blank group G01)×100%.
The statistically significant difference between test results of blank group G01 and other groups was obtained by student's t-test statistical analysis. In the figures, “*” represents that compared with blank group G01, p is less than 0.05, “**” represents that compared with blank group G01, p is less than 0.01, and “***” represents that compared with blank group G01, p is less than 0.001.

Row | SMILES | inhibition at 100 µM [1] | relative hair follicle cell proliferation rate [2] | increase of relative hair follicle cell proliferation rate relative to blank group G01 [2] | proliferation effect compared with control group G02 (20% fetal bovine serum) [2]
1 | O=C(O[C@@H]1Cc2c(O)cc(O)cc2O[C@@H]1c1ccc(O)c(O)c1)c1cc(O)c(O)c(O)c1 [epicatechin gallate, Epicatechin gallate] | 96.9% | 89.9% |  | 
2 | O=C(O)c1ccc(O)c(O)c1 [protocatechuic acid, Protocatechuic acid] | 99.4% | 109.6% | ~9.6% | 
3 | O=C(/C=C/c1ccc(O)cc1)OC[C@H]1O[C@@H](Oc2cc(O)c3c(c2)OC(c2ccc(O)cc2)CC3=O)[C@H](O)[C@@H](O)[C@@H]1O (stereo partly drawn) [Naringenin 7-O-(6″-O-p-coumaryl)-β-D-glucoside] | 75.8% | 125% | ~25% | superior to that of control group G02
4 | Oc1cc(O)c2c(c1)O[C@H](c1cc(O)c(O)c(O)c1)[C@@H](O)C2 [gallocatechin, Gallocatechin] | 90.8% | 93.5% |  | 
5 | O=C(/C=C/c1ccc(O)cc1)O[C@@H]1Cc2c(O)cc(O)cc2O[C@@H]1c1ccc(O)c(O)c1 [epicatechin coumarin ester, Epicatechin coumarin ester] | 100% | 114.1% | about 14.1% | 
6 | Oc1cc(O)cc(O)c1 [phloroglucinol, Phloroglucinol] | 53.9% | 127.9% | ~27.9% | superior to that of control group G02
7 | O=C(O)c1cc(O)c(O)c(O)c1 [gallic acid, Gallic acid] | 80% | 83.7% |  | 
